From patent publication US8202507B2, “Assay for vitamin B12 absorption and method of making labeled vitamin B12” (The Regents of the University of California, priority 2004, dated 2012)

Tests used:
[1] = cited from earlier work
[2] = AMS assay of B12 absorption in a normal human subject after oral ^14C-vitamin B12; type: in vivo; conditions: for total of oral dose recovered in urine and feces: seven days post-dose, cumulative urine and stool; for delay in the appearance of the label in plasma: plasma by AMS
Method: This example describes the use of this labeled B12 and AMS to assay B12 absorption in a normal human subject. A single 1.5 μg dose of the ^14C-vitamin B12 was administered orally and detected by AMS as it appeared in the bloodstream.
The subject was a healthy person with a body mass index (BMI) of 27.5. The subject began complete fecal and urine collection 24 h in advance of the dose and continued complete 24 h collections until Day 7. On the day of dose administration, the subject was fitted with an intravenous catheter in a forearm vein. Blood was drawn into 7 mL tubes containing EDTA. A baseline blood sample was drawn (7 AM) and the dose consumed that corresponded to 2.2 KBq of radioactivity (1.5 μg) was administered in 50 mL of drinking water in a paper cup. The volunteer was allowed to have water ad libitum thereafter, with a light meal taken 2 hr postdose. Blood samples were drawn at frequent intervals for the first 15 hr post-dose and daily thereafter. Meals were controlled for time and content on the dose administration day.
AMS analysis. Aliquots of plasma (30 μL), urine (80 μL) and a stool slurry (80 μL) were dried, combusted to CO2, and reduced to filamentous carbon using known procedures. No other processing preceded the graphization step, thus quantitative recovery was ensured. The ^14C measurements were performed at the Center for Accelerator Mass Spectrometry at Lawrence Livermore National Laboratory. Measurements were conducted to <3% instrument imprecision and, in general, signal acquisition was complete to the desired statistical precision in 3-5 min per sample. The radiation exposure of the subject, due to the ^14C-B12 dose, was equivalent or less than exposure due to 10 hours of intercontinental plane flight.

| Substance | solubility in water ([1]; 25° C.) | solubility in acetone, chloroform and ether [1] | solubility in alcohol and phenol [1] | total of oral dose recovered in urine and feces [2] | total of oral dose recovered in urine and feces ([2]; listed as 14C) | share of the quantified output accounted for ([2]; seventy-two hours post-dose, urine and feces) | delay in the appearance of the label in plasma ([2]; single 1.5 μg oral dose) | delay in the appearance of the label in plasma ([2]; single 1.5 μg oral dose, listed as 14C from the labeled vitamin B12) | peak circulating ^14C-B12 as percent of the administered dose ([2]; single 1.5 μg oral dose, plasma, at peak after seven hours) | label in the twenty-four hour urine collection ([2]; single 1.5 μg oral dose, urine, no flushing dose) |
| --- | --- | --- | --- | --- | --- | --- | --- | --- | --- | --- |
| Cyanocobalamin | 1.2% | insoluble | soluble | – | – | – | – | – | – | – |
| ^14C-cyanocobalamin [^14C-vitamin B12] | – | – | – | 15.8% | 15.9% | 99% | two to three | three | less than three | 6.8 % of administered dose |
